From patent EP4005558A1, “ANTICANCER AGENT AND METHOD FOR PREPARATION OF POROUS SILICA PARTICLE” (Lemonex Inc., priority 2019, dated 2022)

Legend:
MCF-7 cells = test: Cytotoxicity, MTT assay; format: cell-based; settings: treatment for 1 day, compared to the non-treated group
Description: MCF-7 cells were seeded at 10,000 cells/well in 96-well cell culture plates. After 1 day, different concentrations of each particle (4 to 500 µg/mL) were treated with a serum-containing medium in each well for 1 day. Thereafter, the culture was performed for 4 hours while replacing the above medium with a serum-free medium containing 10 µl of MTT assay kit, and the supernatant was aspirated. DMSO was added to each well to dissolve formazan, and reacted for 1 hour. The absorbance was measured at a wavelength of 570 nm, and the cell viability was calculated as a relative value to that of the untreated group.
Cell viability was compared by MTT assay after treatment with FabBALL and Becl peptide carrying Becl peptide on MCF-7 cells.

[1] = test system: MCF-7 cells expressing LC3-GFP; test: Number of GFP-LC3 puncta (autophagy induction); format: cell-based; settings: MCF-7 expressing LC3-GFP, treated 6 hours in serum-free medium
Description: Using lipofectamine 2000, LC3-GFP plasmid was transfected into MCF-7 cells. Transfected MCF-7 was selected with 800 µg/mL of G418 for 3 months. […] 100,000 MCF-7 cells expressing LC3-GFP were seeded.
40 µg of dye-labeled particles and 4 µg of bec1 peptide were mixed, and the cells were treated for 6 hours in a serum-free medium. Cells were fixed with 4% PFA, and nuclei were stained with DAPI. Images were obtained with a Delta-vision microscope, and the number of GFP-LC3 puncta was measured in 100 cells for each group.
LC3 protein is a biomarker involved in the elongation process of autophagosome, and its expression level is known to increase with the progress of autophagosome.

**Q.** Which cell viability (MCF-7 cells) does the source give for CGGTNVFNATFHIWHSGQFGT [Becl peptide] here?
**A.** not significantly varied

**Q.** And the GFP puncta [1]?
**A.** very little amount
